This note sets out measurements from ChEMBL document CHEMBL3596122, “Isoform-Selective and Stereoselective Inhibition of Hypoxia Inducible Factor-2” (J Med Chem, 2015).

Activity calls are given as the source filed them. The calls are words filed in the database; no cut-off is given here.

Experiment [1] has as its target T1, Endothelial PAS domain-containing protein 1 (Homo sapiens, UniProt Q99814).
Description: Binding affinity to wild type GST-tagged HIF-2alpha PAS-B (240 to 350) (unknown origin) expressed in Escherichia coli assessed as inhibition of interaction with His6-Gbeta1/FLAG fused ARNT PAS-B after 4 hrs by AlphaScreen assay
Experiment [2] has as its target T1, Endothelial PAS domain-containing protein 1. This is another data set of the same source.
Description: Binding affinity to wild type His6-Gbeta1-fused HIF-2alpha PAS-B domain (240 to 350) (unknown origin) expressed in Escherichia coli by ITC analysis
In experiment [3] the target is T2, Endothelial PAS domain-containing protein 1 (Homo sapiens, UniProt Q99814, S304M).
T2 sequence (Q99814 whole entry S304M, the tested form may be a part): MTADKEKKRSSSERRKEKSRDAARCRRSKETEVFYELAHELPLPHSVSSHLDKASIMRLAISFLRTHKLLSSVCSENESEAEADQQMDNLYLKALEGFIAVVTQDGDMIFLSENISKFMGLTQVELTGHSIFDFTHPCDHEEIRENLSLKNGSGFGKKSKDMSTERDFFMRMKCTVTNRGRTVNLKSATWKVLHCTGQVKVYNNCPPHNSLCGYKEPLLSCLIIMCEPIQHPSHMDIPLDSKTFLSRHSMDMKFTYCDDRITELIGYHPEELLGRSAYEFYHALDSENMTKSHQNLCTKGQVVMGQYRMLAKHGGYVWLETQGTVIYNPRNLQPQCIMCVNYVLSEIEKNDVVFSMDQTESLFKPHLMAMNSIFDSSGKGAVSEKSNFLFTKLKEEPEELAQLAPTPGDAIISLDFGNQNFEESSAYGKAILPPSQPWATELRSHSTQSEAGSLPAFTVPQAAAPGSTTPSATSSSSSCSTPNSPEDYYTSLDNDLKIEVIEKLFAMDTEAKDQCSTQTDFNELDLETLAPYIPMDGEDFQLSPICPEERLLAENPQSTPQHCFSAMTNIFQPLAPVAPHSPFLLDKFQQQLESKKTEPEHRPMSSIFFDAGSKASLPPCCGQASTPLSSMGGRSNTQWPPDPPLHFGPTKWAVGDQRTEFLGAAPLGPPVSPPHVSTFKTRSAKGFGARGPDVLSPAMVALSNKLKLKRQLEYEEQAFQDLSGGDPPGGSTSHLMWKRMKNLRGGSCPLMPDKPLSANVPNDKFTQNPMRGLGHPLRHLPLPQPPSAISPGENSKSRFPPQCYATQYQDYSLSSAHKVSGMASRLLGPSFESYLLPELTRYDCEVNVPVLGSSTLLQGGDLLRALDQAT
In experiment [4] the target is T1, Endothelial PAS domain-containing protein 1. Particulars: Hep 3B2, 0.01 to 10 uM.
Description: Inhibition of HIF-2alpha in human Hep3B cells assessed as downregulation of EPO mRNA expression at 0.01 to 10 uM by RT-PCR analysis
In experiment [5] the target is Hypoxia-inducible factor 1-alpha (Homo sapiens, UniProt Q16665). Kind of experiment: Binding affinity to wild type GST-fused HIF-1alpha PAS-B domain (238 to 349) (unknown origin) expressed in Escherichia coli assessed as compound-protein complex formation by ITC analysis. For orientation: ITC needs no label: the signal is the heat of the interaction.
Chain of Hypoxia-inducible factor 1-alpha (Q16665 whole entry, the tested form may be a part): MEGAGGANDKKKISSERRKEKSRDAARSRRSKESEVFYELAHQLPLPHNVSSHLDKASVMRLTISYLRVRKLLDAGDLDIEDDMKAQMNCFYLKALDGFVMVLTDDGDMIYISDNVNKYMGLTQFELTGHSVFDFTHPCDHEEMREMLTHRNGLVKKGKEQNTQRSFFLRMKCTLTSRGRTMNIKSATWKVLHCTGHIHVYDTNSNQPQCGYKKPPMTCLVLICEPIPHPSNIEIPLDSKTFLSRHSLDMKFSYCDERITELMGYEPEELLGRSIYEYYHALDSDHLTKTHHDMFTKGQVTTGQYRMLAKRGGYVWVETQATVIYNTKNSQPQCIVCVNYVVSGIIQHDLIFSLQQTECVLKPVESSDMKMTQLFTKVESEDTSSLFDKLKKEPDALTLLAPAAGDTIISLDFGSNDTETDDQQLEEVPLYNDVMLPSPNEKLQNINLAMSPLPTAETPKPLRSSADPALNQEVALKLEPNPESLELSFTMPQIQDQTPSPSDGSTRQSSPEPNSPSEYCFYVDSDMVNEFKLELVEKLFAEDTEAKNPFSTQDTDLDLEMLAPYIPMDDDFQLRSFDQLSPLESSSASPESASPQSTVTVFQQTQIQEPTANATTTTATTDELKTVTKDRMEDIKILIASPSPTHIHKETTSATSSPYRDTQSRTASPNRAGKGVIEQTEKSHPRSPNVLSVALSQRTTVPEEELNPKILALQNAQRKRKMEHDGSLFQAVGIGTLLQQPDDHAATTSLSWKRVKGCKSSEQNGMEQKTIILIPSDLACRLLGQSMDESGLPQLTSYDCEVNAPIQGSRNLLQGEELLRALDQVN
Experiment [6] addresses T2, Endothelial PAS domain-containing protein 1. Kind of experiment: Binding affinity to His6-Gbeta1-fused HIF-2alpha PAS-B domain S304M mutant (240 to 350) (unknown origin) expressed in Escherichia coli by ITC analysis.
For experiment [7], the target named is T1, Endothelial PAS domain-containing protein 1. Nature of the experiment: Inhibition of HIF-2alpha in human Hep3B cells assessed as downregulation of EPO mRNA expression by RT-PCR analysis.
The next experiment has as its system Hep 3B2. Kind of experiment: Effect on HIF-1-mediated PGK1 mRNA expression in human Hep3B cells at 0.01 to 10 uM by RT-PCR analysis. The format is cell-based.

T1 sequence (Q99814 whole entry, the tested form may be a part): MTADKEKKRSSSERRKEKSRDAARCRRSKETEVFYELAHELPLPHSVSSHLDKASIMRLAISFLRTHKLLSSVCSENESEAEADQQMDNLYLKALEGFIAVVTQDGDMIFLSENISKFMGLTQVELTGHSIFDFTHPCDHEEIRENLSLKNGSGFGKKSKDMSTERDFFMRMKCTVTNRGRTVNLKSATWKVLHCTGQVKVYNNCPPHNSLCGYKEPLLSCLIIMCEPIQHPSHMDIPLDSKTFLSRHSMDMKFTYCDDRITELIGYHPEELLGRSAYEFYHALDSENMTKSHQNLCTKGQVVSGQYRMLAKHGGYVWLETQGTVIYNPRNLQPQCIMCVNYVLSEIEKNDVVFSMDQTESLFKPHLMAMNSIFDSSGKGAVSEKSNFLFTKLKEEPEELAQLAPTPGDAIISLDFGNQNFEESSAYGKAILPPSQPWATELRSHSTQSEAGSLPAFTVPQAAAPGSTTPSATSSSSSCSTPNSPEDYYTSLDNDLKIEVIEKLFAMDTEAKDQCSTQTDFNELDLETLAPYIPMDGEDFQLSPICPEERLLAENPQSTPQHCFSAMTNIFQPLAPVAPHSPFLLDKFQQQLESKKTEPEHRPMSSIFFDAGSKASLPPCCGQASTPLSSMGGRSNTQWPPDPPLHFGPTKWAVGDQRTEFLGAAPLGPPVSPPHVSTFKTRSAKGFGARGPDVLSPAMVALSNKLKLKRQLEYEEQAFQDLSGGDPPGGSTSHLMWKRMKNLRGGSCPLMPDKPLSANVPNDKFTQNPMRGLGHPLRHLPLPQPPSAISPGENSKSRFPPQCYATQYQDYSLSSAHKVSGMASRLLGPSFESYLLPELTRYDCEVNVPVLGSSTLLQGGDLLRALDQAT

Consider `Clc1ccc(Br)cc1[C@H]1C[C@@H](c2cccc(Br)c2)Nc2nnnn21`, for which the IC50 stood at 0.087 µM in experiment [1] and 23.9 µM in experiment [3]. For the same molecule, binding in experiment [2] was characterised by a dissociation constant (Kd) of 0.125 µM.
`Brc1cccc([C@H]2C[C@@H](c3ccccc3Br)n3nnnc3N2)c1`: the IC50 in experiment [1] was 28.3 µM; in experiment [3], above 30 µM. Further, the Kd in experiment [2] was above 2 µM.
For `Fc1cc(Br)cc([C@H]2C[C@@H](c3ccccc3)n3nnnc3N2)c1`, in that order: above 30 µM, above 30 µM and above 2 µM.
For `Fc1cc(Br)cc(C2CC(c3cccc(Br)c3)n3nnnc3N2)c1` (racemic), the affinity in experiment [2], expressed as Kd, was 0.028 µM.
Take `Fc1ccc(I)cc1C1CC(c2cccc(Br)c2)Nc2nnnn21` (racemic): the affinity in experiment [2], expressed as Kd, was 0.159 µM.
As for `Fc1cc(Br)cc([C@H]2C[C@@H](c3cccc(Br)c3)n3nnnc3N2)c1`, the IC50 in experiment [1] and in experiment [3] was above 30 µM throughout. For the same molecule, the inhibition entry in experiment [4] is “inactive”. Besides, the Kd in experiment [2] was above 2 µM.
In experiment [2], `Clc1ccc(Br)cc1C1CC(c2cccc(Br)c2)Nc2nnnn21` (racemic) showed a Kd of 0.126 µM.
As for `Brc1cccc([C@H]2C[C@@H](c3cccc(Br)c3)n3nnnc3N2)c1`, the IC50 in experiment [1] and in experiment [3] was above 30 µM throughout. Besides, in experiment [2], the dissociation constant Kd was above 2 µM.
As to `Fc1ccc(Br)c(Cl)c1C1CC(c2cccc(Br)c2)Nc2nnnn21` (racemic), the Kd in experiment [2] came to 0.411 µM.
Regarding `Brc1cccc(C2CC(c3ccccc3Br)n3nnnc3N2)c1` (racemic), the Kd in experiment [2] was determined as 0.4 µM.
For `Fc1cc(Br)cc([C@@H]2C[C@H](c3ccccc3)n3nnnc3N2)c1`, the figures for the IC50 in experiment [1] and in experiment [3] were 0.097 µM and 10.1 µM, respectively. Also, in experiment [2], the affinity, expressed as Kd, was 0.165 µM.
On to `Fc1cc(Br)cc([C@@H]2C[C@H](c3cccc(Br)c3)n3nnnc3N2)c1`, for which the Kd is above 5 µM in experiment [5], 2 µM in experiment [6] and 0.023 µM in experiment [2]. Further, the IC50 is below 1 µM in experiment [7], 0.043 µM in experiment [1] and 14.5 µM in experiment [3]. Besides, the outcome with Hep 3B2 was inactive.
As for `Brc1cccc([C@@H]2C[C@H](c3ccccc3Br)n3nnnc3N2)c1`, the IC50 is 0.314 µM in experiment [1] and 18.9 µM in experiment [3]. The affinity in experiment [2], expressed as Kd, was 0.36 µM.
Regarding `Fc1c(Cl)ccc(Cl)c1C1CC(c2cccc(Br)c2)Nc2nnnn21` (racemic), the Kd in experiment [2] was determined as 0.194 µM.
On the same count and under the same terms, the result for `Fc1c(Br)ccc(Br)c1C1CC(c2cccc(Br)c2)Nc2nnnn21` (racemic) reads 0.24 µM.
For `CC(C)CC1CC(c2cccc(Br)c2)Nc2nnnn21` (racemic), the Kd in experiment [2] is 1.17 µM.
The same measure, in the same setting: the result for `Fc1cc(Br)cc(C2CC(c3ccccc3)n3nnnc3N2)c1` (racemic) reads 0.216 µM.
Still for that read-out and setting: the result for `Clc1cccc(C2CC(c3cccc(Br)c3)Nc3nnnn32)c1` (racemic) reads 0.116 µM.
As for `Clc1ccccc1[C@H]1C[C@@H](c2cccc(Br)c2)Nc2nnnn21`, the IC50 in experiment [1] was 0.195 µM; in experiment [3] it was 15.9 µM. The same molecule registered a Kd in experiment [2] of 0.294 µM.
For the molecule `Clc1ccc(Br)cc1[C@@H]1C[C@H](c2cccc(Br)c2)Nc2nnnn21`, the IC50 in experiment [1] and in experiment [3] was above 30 µM each time. The molecule also yielded a Kd in experiment [2] above 2 µM.
In experiment [2], `Fc1ccc(Cl)c(F)c1C1CC(c2cccc(Br)c2)Nc2nnnn21` (racemic) came in with a Kd of 0.085 µM.
In experiment [2], `Fc1ccc(Br)c(F)c1C1CC(c2cccc(Br)c2)Nc2nnnn21` (racemic) yielded a Kd of 0.049 µM.
For the molecule `Fc1c(Cl)cccc1C1CC(c2cccc(Br)c2)Nc2nnnn21` (racemic), binding in experiment [2] was put at a Kd of 0.038 µM.
Regarding `Clc1ccccc1C1CC(c2cccc(Br)c2)Nc2nnnn21` (racemic), the Kd in experiment [2] worked out at 0.361 µM.
In the case of `Fc1ccc(Br)c(F)c1[C@H]1C[C@@H](c2cccc(Br)c2)Nc2nnnn21`, the figures for the IC50 in experiment [1] and in experiment [3] were 0.032 µM and 3.8 µM, respectively. Moreover, the Kd in experiment [2] was 0.034 µM.
For `Clc1ccccc1[C@@H]1C[C@H](c2cccc(Br)c2)Nc2nnnn21`, in that order: above 30 µM, above 30 µM and above 2 µM.
The molecule `Fc1c(Br)ccc(Cl)c1C1CC(c2cccc(Br)c2)Nc2nnnn21` (racemic) displayed a Kd in experiment [2] of 0.085 µM.
Take `Fc1ccc(F)c(C2CC(c3cccc(Br)c3)Nc3nnnn32)c1F` (racemic): the Kd in experiment [2] was 0.393 µM.
On to `Brc1cccc(C2CC(c3ccccc3I)n3nnnc3N2)c1` (racemic), for which the affinity in experiment [2], expressed as Kd, was 0.766 µM.
Turning to `Fc1ccc(Br)c(F)c1[C@@H]1C[C@H](c2cccc(Br)c2)Nc2nnnn21`, the IC50 in experiment [1] was 22.3 µM; in experiment [3], above 30 µM. This molecule also showed a Kd in experiment [2] above 2 µM.
In the case of `Brc1cccc([C@@H]2C[C@H](c3cccc(Br)c3)n3nnnc3N2)c1`, the half-maximal inhibitory concentration (IC50) in experiment [1] was 0.112 µM; in experiment [3], above 30 µM. The same molecule returned a Kd in experiment [2] of 0.063 µM.
In experiment [2], `Brc1cccc(C2CC(c3cccc(Br)c3)n3nnnc3N2)c1` (racemic) displayed a Kd of 0.07 µM.
In experiment [2], `Fc1ccccc1C1CC(c2cccc(Br)c2)Nc2nnnn21` (racemic) returned a Kd of 0.327 µM.

As a reminder, the IC50 is the concentration that inhibits the measured activity by half. By Kd is commonly meant the free concentration of one partner at which half of the binding sites on the other are occupied at equilibrium, for simple one-to-one binding.
